{"source": "paper PMC3737437", "about": "“The malQ gene is essential for starch metabolism in Streptococcus mutans” (Journal of Oral Microbiology, 2013)", "biological_target": "T1, GlgP (Streptococcus mutans, UniProt Q8DT31)", "T1 construct": "gene overlapping malQ by 29 nt, not the second phosphorylase phsG", "T1 sequence (Q8DT31 1-758)": "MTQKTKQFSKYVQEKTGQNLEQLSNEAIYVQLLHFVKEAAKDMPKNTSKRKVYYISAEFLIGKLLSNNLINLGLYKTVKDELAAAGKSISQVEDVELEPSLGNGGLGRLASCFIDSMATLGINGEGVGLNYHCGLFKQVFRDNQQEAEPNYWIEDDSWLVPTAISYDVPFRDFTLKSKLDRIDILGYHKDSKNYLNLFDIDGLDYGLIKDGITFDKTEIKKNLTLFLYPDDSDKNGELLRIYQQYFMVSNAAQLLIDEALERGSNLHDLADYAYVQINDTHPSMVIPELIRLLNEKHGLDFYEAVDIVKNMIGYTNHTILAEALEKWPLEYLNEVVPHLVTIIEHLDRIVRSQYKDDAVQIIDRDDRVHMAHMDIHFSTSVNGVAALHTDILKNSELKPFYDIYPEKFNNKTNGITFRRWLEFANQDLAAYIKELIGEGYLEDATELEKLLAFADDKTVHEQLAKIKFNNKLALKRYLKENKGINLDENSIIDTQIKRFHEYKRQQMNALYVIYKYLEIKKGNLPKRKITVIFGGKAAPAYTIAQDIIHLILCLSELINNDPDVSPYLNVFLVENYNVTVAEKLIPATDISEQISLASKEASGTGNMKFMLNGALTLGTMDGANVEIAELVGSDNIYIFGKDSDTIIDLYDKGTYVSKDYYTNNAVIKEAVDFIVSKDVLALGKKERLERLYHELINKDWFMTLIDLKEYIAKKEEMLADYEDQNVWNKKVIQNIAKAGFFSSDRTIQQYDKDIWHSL", "test": "phosphorylase assay, phosphoglucomutase / glucose-6-phosphate dehydrogenase-NADP end-point at […] nm", "type": "biochemical", "conditions": "formed from 1% maltodextrin or 0.8% amylodextrin, 50 mM potassium phosphate pH 7, 0.5 mM MgCl2, 37 °C, 10 min", "data": [{"smiles": "O=P(O)(O)O[C@H]1O[C@H](CO)[C@@H](O)[C@H](O)[C@H]1O", "note": "[glucose-1-phosphate]", "values": [{"measurement": "phosphorylase assay, phosphoglucomutase / glucose-6-phosphate dehydrogenase-NADP", "result": "generated glucose-1-phosphate from maltodextrin and amylodextrin"}]}]}
